From ChEMBL document CHEMBL4152336, “Optimization of the first small-molecule relaxin/insulin-like family peptide receptor (RXFP1) agonists: Activation results in an antifibrotic gene expression profile” (Eur J Med Chem, 2018)
≈ marks a conversion by molar mass, not a printed value. Calls of active or inactive are those of the source. The calls are words filed in the database; no cut-off is given here.

Tests used:
[1] = Drug level in C57/BL6 mouse heart at 30 mg/kg, po after 1 hr; format: ADME, organism-based; conditions: in vivo
Mus musculus [2] = assay: Toxicity in C57/BL6 mouse assessed as body weight at 3000 mg/kg, po treated for 5 days measured at day 3 post last dose (reference value: 19.8 +/- 2.5 g); format: organism-based; conditions: in vivo, 120 h
Mus musculus [3] = assay: Toxicity in C57/BL6 mouse assessed as body weight at 90 mg/kg, po treated for 5 days measured at day 9 post last dose (reference value: 20.7 +/- 2.9 g); format: organism-based; conditions: in vivo, 120 h
Mus musculus [4] = assay: Toxicity in C57/BL6 mouse assessed as body weight at 3000 mg/kg, po treated for 5 days measured at day 6 post last dose (reference value: 20.6 +/- 2.6 g); format: organism-based; conditions: in vivo, 120 h
[5] = Aqueous kinetic solubility of the compound in PBS by shake-flask method; format: physicochemical; conditions: PBS; read-out: Kinetic_solubility
Homo sapiens [6] = species: Homo sapiens; assay: Down regulation of CTGF gene expression in human HSC at 5 uM after 24 to 72 hrs by RT-qPCR analysis; format: functional
Mus musculus [7] = assay: Toxicity in C57/BL6 mouse assessed as body weight at 90 mg/kg, po treated for 5 days measured at day 7 post last dose (reference value: 20.6 +/- 2.9 g); format: organism-based; conditions: in vivo, 120 h
[8] = Drug level in C57/BL6 mouse heart at 30 mg/kg, po after 1.5 hr; format: ADME, organism-based; conditions: in vivo
Mus musculus [9] = assay: Toxicity in C57/BL6 mouse assessed as body weight at 90 mg/kg, po treated for 5 days measured at day 4 post last dose (reference value: 20.1 +/- 2.8 g); format: organism-based; conditions: in vivo, 120 h
Mus musculus [10] = assay: Toxicity in C57/BL6 mouse assessed as body weight at 3000 mg/kg, po treated for 5 days measured at day 1 post last dose (reference value: 20.3 +/- 2.6 g); format: organism-based; conditions: in vivo, 120 h
Mus musculus [11] = assay: Toxicity in C57/BL6 mouse assessed as body weight at 3000 mg/kg, po treated for 5 days measured at day 7 post last dose (reference value: 20.6 +/- 2.9 g); format: organism-based; conditions: in vivo, 120 h
Mus musculus [12] = assay: Toxicity in C57/BL6 mouse assessed as body weight at 3000 mg/kg, po treated for 5 days measured at day 5 post last dose (reference value: 20.3 +/- 2.8 g); format: organism-based; conditions: in vivo, 120 h
[13] = Drug level in C57/BL6 mouse heart at 30 mg/kg, po after 2 hrs; format: ADME, organism-based; conditions: in vivo
Mus musculus [14] = assay: Toxicity in C57/BL6 mouse assessed as body weight at 300 mg/kg, po treated for 5 days measured at day 3 post last dose (reference value: 19.8 +/- 2.5 g); format: organism-based; conditions: in vivo, 120 h
Mus musculus [15] = assay: Toxicity in C57/BL6 mouse assessed as body weight at 300 mg/kg, po treated for 5 days measured at day 8 post last dose (reference value: 20.6 +/- 2.8 g); format: organism-based; conditions: in vivo, 120 h
Homo sapiens [16] = species: Homo sapiens; assay: Upregulation of PPARGC1A gene expression in human HSC at 5 uM after 24 to 72 hrs by RT-qPCR analysis; format: functional
Mus musculus [17] = assay: Toxicity in C57/BL6 mouse assessed as body weight at 300 mg/kg, po treated for 5 days measured at day 6 post last dose (reference value: 20.6 +/- 2.6 g); format: organism-based; conditions: in vivo, 120 h
Mus musculus [18] = assay: Toxicity in C57/BL6 mouse at 3 to 30 mg/kg, po; format: organism-based; conditions: in vivo
[19] = Drug level in C57/BL6 mouse heart at 30 mg/kg, po after 0.5 hrs; format: ADME, organism-based; conditions: in vivo
[20] = Drug level in C57/BL6 mouse heart at 3 mg/kg, iv after 0.25 hrs; format: ADME, organism-based; conditions: in vivo
[21] = Drug level in C57/BL6 mouse heart at 3 mg/kg, iv after 0.5 hrs; format: ADME, organism-based; conditions: in vivo
Mus musculus [22] = assay: Toxicity in C57/BL6 mouse assessed as body weight at 3000 mg/kg, po treated for 5 days measured at day 9 post last dose (reference value: 20.7 +/- 2.9 g); format: organism-based; conditions: in vivo, 120 h
Mus musculus [23] = assay: Toxicity in C57/BL6 mouse assessed as body weight at 3000 mg/kg, po treated for 5 days measured at day 10 post last dose (reference value: 20.7 +/- 2.6 g); format: organism-based; conditions: in vivo, 120 h
Homo sapiens [24] = species: Homo sapiens; assay: Down regulation of COL1A1 gene expression in human HSC at 5 uM after 24 to 72 hrs by RT-qPCR analysis; format: functional
[25] = Drug level in C57/BL6 mouse heart at 30 mg/kg, po after 24 hrs; format: ADME, organism-based; conditions: in vivo, BLD = below limit of detection
Mus musculus [26] = assay: Toxicity in C57/BL6 mouse assessed as body weight at 300 mg/kg, po treated for 5 days measured at day 7 post last dose (reference value: 20.6 +/- 2.9 g); format: organism-based; conditions: in vivo, 120 h
[27] = Drug level in C57/BL6 mouse heart at 30 mg/kg, po after 5 hrs; format: ADME, organism-based; conditions: in vivo
[28] = Drug level in C57/BL6 mouse heart at 3 mg/kg, iv after 7 hrs; format: ADME, organism-based; conditions: in vivo
Mus musculus [29] = assay: Toxicity in C57/BL6 mouse assessed as body weight at 3000 mg/kg, po treated for 5 days measured at day 4 post last dose (reference value: 20.1 +/- 2.8 g); format: organism-based; conditions: in vivo, 120 h
Mus musculus [30] = assay: Toxicity in C57/BL6 mouse assessed as mouse death at 90 to 3000 mg/kg, po treated for 5 days measured at day 5 post last dose; format: organism-based; conditions: in vivo, 120 h
[31] = Drug level in C57/BL6 mouse heart at 3 mg/kg, iv after 2 hrs; format: ADME, organism-based; conditions: in vivo
Mus musculus [32] = assay: Toxicity in C57/BL6 mouse assessed as body weight at 300 mg/kg, po treated for 5 days measured at day 5 post last dose (reference value: 20.3 +/- 2.8 g); format: organism-based; conditions: in vivo, 120 h
Mus musculus [33] = assay: Toxicity in C57/BL6 mouse assessed as body weight at 300 mg/kg, po treated for 5 days measured at day 10 post last dose (reference value: 20.7 +/- 2.6 g); format: organism-based; conditions: in vivo, 120 h
Mus musculus [34] = assay: Toxicity in C57/BL6 mouse assessed as body weight at 300 mg/kg, po treated for 5 days measured at day 2 post last dose (reference value: 19.8 +/- 2.3 g); format: organism-based; conditions: in vivo, 120 h
Mus musculus [35] = assay: Toxicity in C57/BL6 mouse assessed as body weight at 300 mg/kg, po treated for 5 days measured at day 1 post last dose (reference value: 20.3 +/- 2.6 g); format: organism-based; conditions: in vivo, 120 h
Mus musculus [36] = assay: Toxicity in C57/BL6 mouse assessed as body weight at 90 mg/kg, po treated for 5 days measured at day 6 post last dose (reference value: 20.6 +/- 2.6 g); format: organism-based; conditions: in vivo, 120 h
Mus musculus [37] = assay: Toxicity in C57/BL6 mouse assessed as abnormal behavior at 3 to 30 mg/kg, iv; format: organism-based; conditions: in vivo
Homo sapiens [38] = species: Homo sapiens; assay: Down regulation of TGFB1 gene expression in human HSC at 5 uM after 24 to 72 hrs by RT-qPCR analysis; format: functional
Mus musculus [39] = assay: Toxicity in C57/BL6 mouse assessed as body weight at 90 mg/kg, po treated for 5 days measured at day 8 post last dose (reference value: 20.6 +/- 2.8 g); format: organism-based; conditions: in vivo, 120 h
[40] = Drug level in C57/BL6 mouse heart at 30 mg/kg, po after 0.17 hrs; format: ADME, organism-based; conditions: in vivo
Mus musculus [41] = assay: Toxicity in C57/BL6 mouse assessed as body weight at 300 mg/kg, po treated for 5 days measured at day 4 post last dose (reference value: 20.1 +/- 2.8 g); format: organism-based; conditions: in vivo, 120 h

CC(C)Oc1ccccc1C(=O)Nc1ccccc1C(=O)Nc1cccc(S(=O)(=O)C(F)(F)F)c1
Drug uptake [1]: 1.041 µmol/kg
Activity (Mus musculus [2]): 20.6 g
Activity (Mus musculus [3]): 20.8 g
Activity (Mus musculus [4]): 21.1 g
solubility kinetic [5]: 7 µM (≈ 3.55 µg/mL)
Activity (Homo sapiens [6]): Active
Activity (Mus musculus [7]): 20.4 g
Drug uptake [8]: 2.026 µmol/kg
Activity (Mus musculus [9]): 20 g
Activity (Mus musculus [10]): 20.6 g
Activity (Mus musculus [11]): 21.2 g
Activity (Mus musculus [12]): 20.8 g
Drug uptake [13]: 1.016 µmol/kg
Activity (Mus musculus [14]): 20.4 g
Activity (Mus musculus [15]): 21.2 g
Activity (Homo sapiens [16]): Active
Activity (Mus musculus [17]): 20.8 g
Activity (Mus musculus [18]): Non-Toxic
Drug uptake [19]: 1.428 µmol/kg
Drug uptake [20]: 2.084 µmol/kg
Drug uptake [21]: 2.001 µmol/kg
Activity (Mus musculus [22]): 21.2 g
Activity (Mus musculus [23]): 21.3 g
Activity (Homo sapiens [24]): Active
Drug uptake [25]: Bld
Activity (Mus musculus [26]): 20.9 g
Drug uptake [27]: 0.256 µmol/kg
Drug uptake [28]: 0.394 µmol/kg
Activity (Mus musculus [29]): 20.7 g
Activity (Mus musculus [30]): Non-Toxic
Drug uptake [31]: 1.206 µmol/kg
Activity (Mus musculus [32]): 20.6 g
Activity (Mus musculus [33]): 21.3 g
Activity (Mus musculus [34]): 20.1 g
Activity (Mus musculus [35]): 20.4 g
Activity (Mus musculus [36]): 20.4 g
Activity (Mus musculus [37]): Non-Toxic
Activity (Homo sapiens [38]): Active
Activity (Mus musculus [39]): 20.6 g
Drug uptake [40]: 0.926 µmol/kg
Activity (Mus musculus [41]): 20.4 g
